Measurements as given in ChEMBL document CHEMBL5321287, “Discovery, Synthesis, and Evaluation of Novel Dual Inhibitors of a Vascular Endothelial Growth Factor Receptor and Poly(ADP-Ribose) Polymerase for BRCA Wild-Type Breast Cancer Therapy” (J Med Chem, 2023).
Active and inactive are the calls of the source. The calls are words filed in the database; no cut-off is given here.

What was measured:
MDA-MB-436 [1] = experiment: Antiproliferative activity against human MDA-MB-436 cells assessed as cell growth inhibition
MDA-MB-231 [2] = experiment: Inhibition of colony formation in human MDA-MB-231 cells at 4 uM incubated for 10 days in presence of 1:1 of compound:Olaparib by crystal violet staining based assay; type: functional, cell-based; conditions: time 10.0 day
MDA-MB-231 [3] = experiment: Induction of cell cycle arrest at S phase in human MDA-MB-231 cells at 4 uM by Annexin-V-FLUOS staining based flow cytometry; type: functional
MDA-MB-231 [4] = experiment: Induction of cell cycle arrest at G2/M phase in human MDA-MB-231 cells at 4 uM by Annexin-V-FLUOS staining based flow cytometry; type: functional
MCF7 [5] = experiment: Induction of cell cycle arrest at G2/M phase in human MCF7 cells at 4 uM in presence of 1:1 of compound:Olaparib by Annexin-V-FLUOS staining based flow cytometry; type: functional
MDA-MB-231 [6] = experiment: Induction of apoptosis in human MDA-MB-231 cells assessed as decrease in Bcl-2 level at 4 uM incubated for 2 days in presence of 1:1 of compound:Olaparib by immunoblot analysis; type: functional, cell-based; conditions: time 2.0 day
MDA-MB-231 [7] = experiment: Induction of apoptosis in human MDA-MB-231 cells assessed as increase in cleaved caspase-3 level at 4 uM incubated for 2 days in presence of 1:1 of compound:Olaparib by immunoblot analysis; type: functional, cell-based; conditions: time 2.0 day
MCF7 [8] = experiment: Induction of apoptosis in human MCF7 cells assessed as increase in cleaved caspase-3 level at 4 uM incubated for 2 days in presence of 1:1 of compound:Olaparib by immunoblot analysis; type: functional, cell-based; conditions: time 2.0 day
MDA-MB-231 [9] = experiment: Antimigratory activity in human MDA-MB-231 cells assessed as upregulation of E-cadherin level at 4 uM in presence of 1:1 of compound:Olaparib by DAPI staining based immunofluorescence analysis; type: functional, cell-based
MDA-MB-231 [10] = experiment: Antimigratory activity in human MDA-MB-231 cells assessed as downregulation of MMP-2 level at 4 uM in presence of 1:1 of compound:Olaparib by DAPI staining based immunofluorescence analysis; type: functional, cell-based
MCF7 [11] = experiment: Antimigratory activity in human MCF7 cells assessed as downregulation of MMP-2 level at 4 uM by DAPI staining based immunofluorescence analysis; type: functional, cell-based
MDA-MB-231 [12] = experiment: Antimigratory activity in human MDA-MB-231 cells assessed as upregulation of E-cadherin level at 4 uM incubated for 2 days by immunoblot analysis; type: functional, cell-based; conditions: time 2.0 day
MCF7 [13] = experiment: Antimigratory activity in human MCF7 cells assessed as upregulation of E-cadherin level at 4 uM incubated for 2 days in presence of 1:1 of compound:Olaparib by immunoblot analysis; type: functional, cell-based; conditions: time 2.0 day
MDA-MB-231 [14] = experiment: Antimigratory activity in human MDA-MB-231 cells assessed as downregulation of MMP-2 level at 4 uM incubated for 2 days by immunoblot analysis; type: functional, cell-based; conditions: time 2.0 day
MCF7 [15] = experiment: Antimigratory activity in human MCF7 cells assessed as downregulation of MMP-2 level at 4 uM incubated for 2 days by immunoblot analysis; type: functional, cell-based; conditions: time 2.0 day
MDA-MB-231 [16] = experiment: Induction of hypoxia in human MDA-MB-231 cells assessed as upregulation of HIF-1alpha level at 4 uM incubated for 2 days in presence 1:1 of Olaparib by Western blot analysis; type: functional, cell-based; conditions: time 2.0 day
MCF7 [17] = experiment: Induction of hypoxia in human MCF7 cells assessed as upregulation of HIF-1alpha level at 4 uM incubated for 2 days in presence 1:1 of Olaparib by Western blot analysis; type: functional, cell-based; conditions: time 2.0 day
MDA-MB-231 [18] = experiment: Induction of DNA damage in human MDA-MB-231 cells assessed as increase in gamma-H2AX level at 4 uM incubated for 48 hrs in presence of 1:1 of compound:Olaparib by DAPI staining based immunofluorescence analysis; type: functional, cell-based
MCF7 [19] = experiment: Induction of DNA damage in human MCF7 cells assessed as increase in gamma-H2AX level at 4 uM incubated for 48 hrs in presence of 1:1 of compound:Olaparib by DAPI staining based immunofluorescence analysis; type: functional, cell-based
MDA-MB-231 [20] = experiment: Induction of HR DNA repair in human MDA-MB-231 cells assessed as decrease in RAD51 level at 4 uM incubated for 48 hrs by DAPI staining based immunofluorescence analysis; type: functional, cell-based
MCF7 [21] = experiment: Induction of HR DNA repair in human MCF7 cells assessed as decrease in RAD51 level at 4 uM incubated for 48 hrs by DAPI staining based immunofluorescence analysis; type: functional, cell-based
MDA-MB-231 [22] = experiment: Antiinvasive activity against human MDA-MB-231 cells at 4 uM incubated for 12 hrs in presence of 1:1 of compound:Olaparib by transwell assay; type: functional, cell-based
[23] = target: Poly [ADP-ribose] polymerase 1 (Homo sapiens, UniProt P09874); experiment: Inhibition of PARP1 in human MDA-MB-231 cells xenografted in BALB/c nude mouse at 50 mg/kg, po for 14 days in presence of 1:1 of compound:Olaparib by H and E staining based IHC analysis; type: organism-based; conditions: time 14.0 day
Chain of Poly [ADP-ribose] polymerase 1 (P09874 whole entry): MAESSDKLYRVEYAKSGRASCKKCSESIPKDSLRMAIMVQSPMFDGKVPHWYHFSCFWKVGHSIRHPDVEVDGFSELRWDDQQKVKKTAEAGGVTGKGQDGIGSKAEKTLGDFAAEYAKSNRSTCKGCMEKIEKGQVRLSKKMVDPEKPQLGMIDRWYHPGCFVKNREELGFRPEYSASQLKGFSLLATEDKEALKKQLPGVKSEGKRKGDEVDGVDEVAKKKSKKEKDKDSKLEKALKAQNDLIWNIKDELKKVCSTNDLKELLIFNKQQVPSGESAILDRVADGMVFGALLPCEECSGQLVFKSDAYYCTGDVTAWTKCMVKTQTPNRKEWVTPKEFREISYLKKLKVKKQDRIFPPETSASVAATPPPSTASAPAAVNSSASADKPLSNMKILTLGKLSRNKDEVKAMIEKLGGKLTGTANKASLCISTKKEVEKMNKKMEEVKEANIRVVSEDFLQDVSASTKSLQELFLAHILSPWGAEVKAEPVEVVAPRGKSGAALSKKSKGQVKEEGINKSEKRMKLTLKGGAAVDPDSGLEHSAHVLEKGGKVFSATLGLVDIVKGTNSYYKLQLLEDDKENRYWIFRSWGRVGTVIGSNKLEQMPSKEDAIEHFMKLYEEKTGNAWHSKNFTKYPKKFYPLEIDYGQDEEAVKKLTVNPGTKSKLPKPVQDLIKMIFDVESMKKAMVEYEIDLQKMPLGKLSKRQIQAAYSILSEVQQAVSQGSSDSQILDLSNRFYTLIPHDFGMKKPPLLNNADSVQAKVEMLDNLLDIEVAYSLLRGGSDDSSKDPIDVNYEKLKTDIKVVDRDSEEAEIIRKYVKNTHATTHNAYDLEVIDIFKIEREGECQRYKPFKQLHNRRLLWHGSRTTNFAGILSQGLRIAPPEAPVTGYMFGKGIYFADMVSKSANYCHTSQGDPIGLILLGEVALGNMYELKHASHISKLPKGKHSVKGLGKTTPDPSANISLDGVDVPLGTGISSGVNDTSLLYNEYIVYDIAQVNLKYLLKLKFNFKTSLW

MDA-MB-231 [24] = experiment: Downregulation of PAR expression in human MDA-MB-231 cells xenografted in BALB/c nude mouse at 25 to 50 mg/kg, po for 14 days in presence of 1:1 of compound:Olaparib by Western blot analysis; type: functional, organism-based; conditions: dose 25-50 mg/kg, time 14.0 day
[25] = target: Vascular endothelial growth factor receptor 1 (Homo sapiens, UniProt P17948); experiment: Inhibition of VEGFR1 phosphorylation at tyr1333 residue in human MDA-MB-231 cells xenografted in BALB/c nude mouse at 25 to 50 mg/kg, po for 14 days in presence of 1:1 of compound:Olaparib by Western blot analysis; type: organism-based; conditions: dose 25-50 mg/kg, time 14.0 day
Chain of Vascular endothelial growth factor receptor 1 (P17948 whole entry): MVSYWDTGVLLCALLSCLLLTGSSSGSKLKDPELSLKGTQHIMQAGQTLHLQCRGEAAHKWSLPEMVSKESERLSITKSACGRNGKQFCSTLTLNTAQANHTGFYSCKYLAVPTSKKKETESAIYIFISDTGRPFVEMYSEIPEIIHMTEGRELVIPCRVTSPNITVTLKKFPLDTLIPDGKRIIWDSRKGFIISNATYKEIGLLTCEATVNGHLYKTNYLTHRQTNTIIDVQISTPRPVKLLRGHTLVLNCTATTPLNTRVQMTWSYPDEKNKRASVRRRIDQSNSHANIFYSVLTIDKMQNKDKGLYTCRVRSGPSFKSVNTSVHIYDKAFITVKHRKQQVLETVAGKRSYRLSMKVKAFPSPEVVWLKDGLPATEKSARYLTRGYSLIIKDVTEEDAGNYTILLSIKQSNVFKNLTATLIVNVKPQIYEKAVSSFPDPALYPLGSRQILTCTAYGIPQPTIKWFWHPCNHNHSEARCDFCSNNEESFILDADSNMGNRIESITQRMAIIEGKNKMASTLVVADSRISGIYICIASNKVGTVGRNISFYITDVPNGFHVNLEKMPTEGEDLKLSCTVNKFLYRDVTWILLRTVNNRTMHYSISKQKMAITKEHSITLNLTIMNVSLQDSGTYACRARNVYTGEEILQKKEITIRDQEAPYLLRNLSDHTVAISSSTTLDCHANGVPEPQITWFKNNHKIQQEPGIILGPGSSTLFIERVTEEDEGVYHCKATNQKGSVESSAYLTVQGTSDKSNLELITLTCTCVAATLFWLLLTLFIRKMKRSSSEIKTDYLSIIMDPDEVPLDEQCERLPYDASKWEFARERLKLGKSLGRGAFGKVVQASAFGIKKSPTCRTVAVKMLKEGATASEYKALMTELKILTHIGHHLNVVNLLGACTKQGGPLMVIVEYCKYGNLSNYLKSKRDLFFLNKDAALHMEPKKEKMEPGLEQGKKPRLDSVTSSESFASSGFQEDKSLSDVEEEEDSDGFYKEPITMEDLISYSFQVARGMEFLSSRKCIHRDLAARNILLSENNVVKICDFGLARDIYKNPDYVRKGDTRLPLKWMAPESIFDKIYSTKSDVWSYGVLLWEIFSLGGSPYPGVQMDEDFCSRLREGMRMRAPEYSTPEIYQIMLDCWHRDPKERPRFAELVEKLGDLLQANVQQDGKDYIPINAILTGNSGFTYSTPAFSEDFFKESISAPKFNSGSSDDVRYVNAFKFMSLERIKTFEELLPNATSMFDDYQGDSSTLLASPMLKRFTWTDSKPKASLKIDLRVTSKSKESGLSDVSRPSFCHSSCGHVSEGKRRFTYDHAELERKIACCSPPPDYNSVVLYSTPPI

MDA-MB-231 [26] = experiment: Induction of HR DNA repair in human MDA-MB-231 cells xenografted in BALB/c nude mouse assessed as decrease in BRCA1 level at 50 mg/kg, po for 14 days in presence of 1:1 of compound:Olaparib by Western blot analysis; type: functional, organism-based; conditions: time 14.0 day
MDA-MB-231 [27] = experiment: Induction of DNA damage in human MDA-MB-231 cells xenografted in BALB/c nude mouse assessed as increase in gamma-H2AX level at 50 mg/kg, po for 14 days in presence of 1:1 of compound:Olaparib by H and E staining based IHC analysis; type: functional, organism-based; conditions: time 14.0 day
MDA-MB-231 [28] = experiment: Induction of HR DNA repair in human MDA-MB-231 cells xenografted in BALB/c nude mouse assessed as decrease in RAD51 level at 50 mg/kg, po for 14 days in presence of 1:1 of compound:Olaparib by H and E staining based IHC analysis; type: functional, organism-based; conditions: time 14.0 day
MDA-MB-231 [29] = experiment: Induction of HR DNA repair in human MDA-MB-231 cells xenografted in BALB/c nude mouse assessed as decrease in BRCA1 level at 50 mg/kg, po for 14 days in presence of 1:1 of compound:Olaparib by H and E staining based IHC analysis; type: functional, organism-based; conditions: time 14.0 day
[30] = target: Vascular endothelial growth factor receptor 2 (Homo sapiens, UniProt P35968); conditions: MDA-MB-231, dose 50.0 mg/kg, route po, time 14.0 day
Chain of Vascular endothelial growth factor receptor 2 (P35968 whole entry): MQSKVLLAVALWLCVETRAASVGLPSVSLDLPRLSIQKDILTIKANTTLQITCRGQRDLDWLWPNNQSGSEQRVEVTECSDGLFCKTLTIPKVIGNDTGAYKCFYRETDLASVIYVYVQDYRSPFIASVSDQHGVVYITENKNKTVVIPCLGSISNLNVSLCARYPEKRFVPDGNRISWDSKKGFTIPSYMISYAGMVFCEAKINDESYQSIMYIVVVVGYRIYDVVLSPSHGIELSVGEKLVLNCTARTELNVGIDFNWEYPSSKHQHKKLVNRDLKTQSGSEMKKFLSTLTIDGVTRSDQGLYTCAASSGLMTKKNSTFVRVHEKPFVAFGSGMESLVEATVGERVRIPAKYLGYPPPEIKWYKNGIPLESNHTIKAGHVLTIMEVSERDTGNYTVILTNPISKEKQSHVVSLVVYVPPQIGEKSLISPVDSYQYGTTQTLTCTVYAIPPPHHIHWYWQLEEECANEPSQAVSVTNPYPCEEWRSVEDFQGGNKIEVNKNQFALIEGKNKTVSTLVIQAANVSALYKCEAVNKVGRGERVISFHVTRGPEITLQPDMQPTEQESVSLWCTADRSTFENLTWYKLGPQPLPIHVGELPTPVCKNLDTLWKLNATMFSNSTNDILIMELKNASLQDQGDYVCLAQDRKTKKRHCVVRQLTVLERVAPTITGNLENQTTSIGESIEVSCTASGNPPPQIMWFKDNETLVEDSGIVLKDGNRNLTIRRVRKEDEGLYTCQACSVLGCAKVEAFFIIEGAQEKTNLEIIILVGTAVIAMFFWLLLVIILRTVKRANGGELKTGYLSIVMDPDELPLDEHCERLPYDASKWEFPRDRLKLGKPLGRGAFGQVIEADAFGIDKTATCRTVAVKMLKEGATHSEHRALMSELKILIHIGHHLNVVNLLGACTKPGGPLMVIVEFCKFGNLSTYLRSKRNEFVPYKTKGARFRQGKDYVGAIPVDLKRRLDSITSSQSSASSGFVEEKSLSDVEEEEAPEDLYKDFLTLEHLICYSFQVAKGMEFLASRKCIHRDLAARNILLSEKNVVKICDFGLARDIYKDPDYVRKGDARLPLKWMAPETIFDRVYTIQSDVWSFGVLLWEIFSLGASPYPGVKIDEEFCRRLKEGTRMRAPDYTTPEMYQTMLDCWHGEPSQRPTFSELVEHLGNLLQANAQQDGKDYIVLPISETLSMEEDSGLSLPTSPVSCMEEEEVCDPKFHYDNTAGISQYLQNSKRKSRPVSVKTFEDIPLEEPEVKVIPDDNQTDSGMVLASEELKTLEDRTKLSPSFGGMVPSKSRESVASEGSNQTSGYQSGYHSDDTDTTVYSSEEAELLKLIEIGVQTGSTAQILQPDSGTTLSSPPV

MDA-MB-436 [31] = experiment: cells; conditions: Homo sapiens
MDA-MB-231 [32] = experiment: cells; conditions: Homo sapiens
MCF7 [33] = experiment: cells; conditions: Homo sapiens

Cc1ccc(Nc2nccc(N(C)c3ccc4c(C)n(C)nc4c3)n2)cc1S(N)(=O)=O [PAZOPANIB]
IC50 (MDA-MB-436 [1]): > 10 µM
inhibition (MDA-MB-231 [2]): Active
Activity (MDA-MB-231 [3]): Active
Activity (MDA-MB-231 [4]): Active
Activity (MCF7 [5]): Active
Activity (MDA-MB-231 [6]): Active
Activity (MDA-MB-231 [7]): Active
Activity (MCF7 [8]): Active
Activity (MDA-MB-231 [9]): Active
Activity (MDA-MB-231 [10]): Active
Activity (MCF7 [11]): Active
Activity (MDA-MB-231 [12]): Active
Activity (MCF7 [13]): Active
Activity (MDA-MB-231 [14]): Active
Activity (MCF7 [15]): Active
Activity (MDA-MB-231 [16]): Active
Activity (MCF7 [17]): Active
Activity (MDA-MB-231 [18]): Active
Activity (MCF7 [19]): Active
Activity (MDA-MB-231 [20]): Active
Activity (MCF7 [21]): Active
Activity (MDA-MB-231 [22]): Active
inhibition [23]: Active
Activity (MDA-MB-231 [24]): Active
inhibition [25]: Active
Activity (MDA-MB-231 [26]): Active
Activity (MDA-MB-231 [27]): Active
Activity (MDA-MB-231 [28]): Active
Activity (MDA-MB-231 [29]): Active
inhibition [30]: Active
IC50 (MDA-MB-436 [31]): > 10 µM
IC50 (MDA-MB-231 [32]): > 10 µM
IC50 (MCF7 [33]): > 10 µM
